“And” between values parts separate entries of the source, which are not always exact repeats. Equal entries are not always repeated. “Also recorded” adds a separate entry of the source. Where two headings read alike, the source gives them in different places.
What was measured:
LPLA2 [1] = molecular target: T1, LPLA2 (Canis lupus familiaris, UniProt Q6XPZ3); test: LPLA2 (transacylase/phospholipase A2) activity assay in MDCK cell homogenates with cationic amphiphilic drugs; assay type: biochemical; settings: FIG. 1A; for inhibition of LPLA2 transacylase and phospholipase A2 activity (in words): enzyme assay for LPLA2 activity
T1 construct: endogenous in cells; host or cells: MDCK cell homogenate
T1 sequence (Q6XPZ3 32-408): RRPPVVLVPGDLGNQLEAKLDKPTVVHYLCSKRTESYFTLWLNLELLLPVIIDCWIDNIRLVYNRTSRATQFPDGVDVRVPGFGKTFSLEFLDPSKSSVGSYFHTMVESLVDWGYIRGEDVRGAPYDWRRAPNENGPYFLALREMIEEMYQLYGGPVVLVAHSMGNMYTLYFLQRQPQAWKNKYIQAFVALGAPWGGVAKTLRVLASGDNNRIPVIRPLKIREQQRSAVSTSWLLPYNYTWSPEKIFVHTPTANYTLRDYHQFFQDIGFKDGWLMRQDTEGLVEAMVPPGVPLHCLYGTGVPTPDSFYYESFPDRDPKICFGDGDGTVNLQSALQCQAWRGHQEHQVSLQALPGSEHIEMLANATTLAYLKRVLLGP
Method: (§1) Phospholipids, DOPC and PE, and N-acetylsphingosine (NAS) were used in the assay system as a donor and an acceptor, respectively, of an acyl group. The transacylase activity was determined by analysis of 1-O-acyl-N-acetylsphingosine formation rate. The reaction mixture consisted of 45 mM sodium citrate (pH 4.5), 10 μg/ml bovine serum albumin, 40 μM NAS incorporated into phospholipid liposomes (DOPC/PE/dicetyl phosphate/NAS (5:2:1:2 in molar ratio)) and soluble fraction (0.7-10 μg) in a total volume of 500 μl. The reaction was initiated by adding the soluble fraction, kept for 5-60 min at 37° C. and terminated by adding 3 ml of chloroform/methanol (2:1) plus 0.3 ml of 0.9% (w/v) NaCl. The mixture was centrifuged for 5 min at room temperature. The resultant lower layer was transferred into another glass tube and dried down under a stream of nitrogen gas. The dried lipid dissolved in 40 μl of chloroform/methanol (2:1) was applied on an HPTLC plate and developed in a solvent system consisting of chloroform/acetic acid (9:1). The plated was dried down and soaked in 8% (w/v) CuSO4, 5H2O, 6.8% (v/v) H3PO4, 32% (v/v) methanol. The uniformly wet plate was briefly dried down by a hair dryer and charred for 15 min in a 150° C. oven. The plate was scanned and the amount of the reaction products was estimated by NIH-image 1.62.
Res., 35:1232-1240, 1994]. PDMP and its related homologs contain a hydrophilic domain with a substituted nitrogen and a hydrophobic aromatic group, functional groups that are typical of CADs in general.

[2] = tested on: surfactant phospholipid catabolism; settings: rats treated with MJ33 (Fisher et al. 2001); cited from earlier work
c-myc-tagged mouse LPLA2 = c-myc-tagged mouse LPLA2 (Mus musculus, UniProt Q8VEB4); settings: soluble fraction of LPLA2 transfected COS 7 cells 2.26 μg protein/ml, citrate buffer pH 4.5, 40 μM NAS
c-myc-tagged mouse LPLA2, sequence (Q8VEB4 34-412): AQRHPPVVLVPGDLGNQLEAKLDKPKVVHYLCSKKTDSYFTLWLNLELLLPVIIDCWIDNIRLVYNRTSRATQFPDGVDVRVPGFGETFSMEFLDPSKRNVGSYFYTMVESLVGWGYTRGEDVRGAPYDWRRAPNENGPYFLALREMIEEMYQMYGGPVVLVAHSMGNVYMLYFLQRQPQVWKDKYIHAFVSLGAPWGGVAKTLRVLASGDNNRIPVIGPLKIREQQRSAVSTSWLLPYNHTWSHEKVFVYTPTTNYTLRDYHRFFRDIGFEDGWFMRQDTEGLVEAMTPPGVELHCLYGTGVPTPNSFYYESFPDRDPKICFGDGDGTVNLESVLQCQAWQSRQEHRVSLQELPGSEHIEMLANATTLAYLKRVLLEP
Method: as §1, with “The uniformly wet plate was briefly dried down by a hair dryer and charred for 15 min in a 150° C. oven. The plate was scanned and the amount of the reaction products was estimated by NIH-image 1.62.” left out
(§2) In the studies the effect of MJ33 on LPLA2 transacylation activity in rat alveolar macrophages and c-myc-tagged mouse LPLA2 transfected COS 7 cells was also determined. […] The enzyme activity was determined as described in the Example 1.

LPLA2 [3] = molecular target: LPLA2 (Rattus norvegicus, UniProt Q675A5); settings: rat AM soluble fraction 2.42 μg protein/ml, citrate buffer pH 4.5, 40 μM NAS, different concentrations of MJ33
LPLA2 (Rattus norvegicus, UniProt Q675A5), sequence (Q675A5 34-413): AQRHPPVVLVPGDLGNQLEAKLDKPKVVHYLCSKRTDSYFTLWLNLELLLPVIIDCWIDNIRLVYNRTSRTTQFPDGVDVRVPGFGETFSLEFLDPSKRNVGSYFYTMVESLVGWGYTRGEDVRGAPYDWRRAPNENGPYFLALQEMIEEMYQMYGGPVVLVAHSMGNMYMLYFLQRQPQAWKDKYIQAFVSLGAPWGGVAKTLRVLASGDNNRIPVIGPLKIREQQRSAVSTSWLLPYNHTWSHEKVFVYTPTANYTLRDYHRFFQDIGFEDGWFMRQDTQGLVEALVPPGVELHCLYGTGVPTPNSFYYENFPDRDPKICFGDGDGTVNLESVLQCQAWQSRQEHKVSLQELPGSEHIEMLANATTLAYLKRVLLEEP
Method: as §1, with “The uniformly wet plate was briefly dried down by a hair dryer and charred for 15 min in a 150° C. oven. The plate was scanned and the amount of the reaction products was estimated by NIH-image 1.62.” left out
as §2

[4] = tested on: dipalmitoyl-phosphatidylcholine degradation; settings: murine lung, previously demonstrated; cited from earlier work
MDCK cells [5] = settings: MDCK cells treated at the IC50 for transacylase inhibition, 7 days, FIG. 2
MDCK cells [6] = tested on: MDCK cells
CHO cells = CHO cells (Rosenwald and Pagano 1994); cited from earlier work
[7] = molecular target: T2, 1-O-acylceramide synthase (LPLA2) (Bos taurus, UniProt Q8WMP9); settings: initial characterization of the enzyme, cited from earlier work
T2 sequence (Q8WMP9 30-407): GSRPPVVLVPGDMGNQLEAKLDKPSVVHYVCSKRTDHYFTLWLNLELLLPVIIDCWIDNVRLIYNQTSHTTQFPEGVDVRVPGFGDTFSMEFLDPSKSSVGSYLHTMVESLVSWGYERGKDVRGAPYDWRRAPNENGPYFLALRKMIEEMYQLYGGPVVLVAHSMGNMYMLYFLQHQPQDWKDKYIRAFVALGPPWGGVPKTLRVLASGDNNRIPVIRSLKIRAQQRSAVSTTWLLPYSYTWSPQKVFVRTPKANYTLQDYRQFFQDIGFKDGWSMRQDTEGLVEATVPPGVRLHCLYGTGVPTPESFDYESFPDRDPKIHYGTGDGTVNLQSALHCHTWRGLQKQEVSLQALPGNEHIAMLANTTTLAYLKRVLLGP

## CCCCc1oc2ccccc2c1C(=O)c1cc(I)c(OCCN(CC)CC)c(I)c1 [Amiodarone, amiodarone]
LPLA2 [1]
  inhibition of LPLA2 transacylase and phospholipase A2 activity (in words): comparable to but greater than PDMP

## CCCCCCCCCCCCCCCCOCC(COCC(F)(F)F)OP(=O)(O)OC (centres unmarked) [MJ33]
[2]
  inhibition of surfactant phospholipid catabolism: 40 to 50%
c-myc-tagged mouse LPLA2
  inhibition of transacylase activity: comparable response
LPLA2 [3]
  inhibition of transacylase activity: concentration dependent inhibition
[4]
  block of dipalmitoyl-phosphatidylcholine degradation: block the majority

## CCCCCCCCCC(=O)N[C@H](CN1CCOCC1)[C@H](O)c1ccccc1 [PDMP, D-threo-1phenyl-2-decanoylamino-3-morphilino-propanol]
MDCK cells [5]
  lysosomal phospholipid inclusions by electron microscopy: obvious lysosomal phospholipid inclusions
MDCK cells [6]; MDCK cells incubated for up to 7 days, 15 μM, FIG. 1B
  total phospholipid content: Modest, but significant increases
MDCK cells [6]; MDCK cells, time-dependent changes, FIG. 1C/1D
  content of phosphatidylethanolamine and phosphatidylcholine: increased
CHO cells
  induction of lysosomal lamellar inclusions: induced lysosomal lamellar inclusions
LPLA2 [1]; enzyme assay for LPLA2 (transacylase) activity, read-out: IC50 / half maximal inhibition of LPLA2 activity
  IC50: 30 µM and 50 µM
LPLA2 [1]
  inhibition of LPLA2 transacylase and phospholipase A2 activity (in words): potently inhibited

## O=C1O/C(=C/Br)CCC1c1cccc2ccccc12 (centres unmarked) [bromoenollactone]
[7]
  inhibition of enzyme activity: did not inhibit
[7]; listed as bromoenol lactone
  inhibition of enzyme activity: insensitive

## CCCCC/C=C\C/C=C\C/C=C\C/C=C\CCCC(=O)C(F)(F)F [nonadecyltetraenyl trifluoromethyl ketone]
[7]
  inhibition of enzyme activity: insensitive; also recorded: did not inhibit
